# In ChEMBL document CHEMBL4420075, “Seriniquinones, melanoma-specific anticancer agents” (2016):
# How the values were obtained:
# Assay type in all cases: functional
# HL-60(TB) = assay: Growth inhibition of human HL-60(TB) cells assessed as cell growth incubated for 48 hrs by sulforhodamine B assay; set-up: concentration or dose not given beside the values
# BT-549 = assay: Growth inhibition of human BT549 cells assessed as cell growth incubated for 48 hrs by sulforhodamine B assay; set-up: concentration or dose not given beside the values
# SNB-75 = assay: Growth inhibition of human SNB75 cells assessed as cell growth incubated for 48 hrs by sulforhodamine B assay; set-up: concentration or dose not given beside the values
# RPMI-8226 = assay: Growth inhibition of human RPMI8226 cells assessed as cell growth incubated for 48 hrs by sulforhodamine B assay; set-up: concentration or dose not given beside the values
# RXF 393 = assay: Growth inhibition of human RXF393 cells assessed as cell growth incubated for 48 hrs by sulforhodamine B assay; set-up: concentration or dose not given beside the values
# MOLT-4 = assay: Growth inhibition of human MOLT4 cells assessed as cell growth incubated for 48 hrs by sulforhodamine B assay; set-up: concentration or dose not given beside the values
# HCC 2998 = assay: Growth inhibition of human HCC2998 cells assessed as cell growth incubated for 48 hrs by sulforhodamine B assay; set-up: concentration or dose not given beside the values
# NCI-H322M = assay: Growth inhibition of human NCI-H322M cells assessed as cell growth incubated for 48 hrs by sulforhodamine B assay; set-up: scale not given: the % may be the effect or the level left
# OVCAR-3 = assay: Growth inhibition of human OVCAR3 cells assessed as cell growth incubated for 48 hrs by sulforhodamine B assay; set-up: concentration or dose not given beside the values
# T47D = assay: Growth inhibition of human T47D cells assessed as cell growth incubated for 48 hrs by sulforhodamine B assay; set-up: concentration or dose not given beside the values
# SW-620 = assay: Growth inhibition of human SW620 cells assessed as cell growth incubated for 48 hrs by sulforhodamine B assay; set-up: concentration or dose not given beside the values
# SF-539 = assay: Growth inhibition of human SF539 cells assessed as cell growth incubated for 48 hrs by sulforhodamine B assay; set-up: scale not given: the % may be the effect or the level left
# HCT-15 = assay: Growth inhibition of human HCT15 cells assessed as cell growth incubated for 48 hrs by sulforhodamine B assay; set-up: scale not given: the % may be the effect or the level left
# NCI-H522 = assay: Growth inhibition of human NCI-H522 cells assessed as cell growth incubated for 48 hrs by sulforhodamine B assay; set-up: concentration or dose not given beside the values
# OVCAR-4 = assay: Growth inhibition of human OVCAR4 cells assessed as cell growth incubated for 48 hrs by sulforhodamine B assay; set-up: concentration or dose not given beside the values
# COLO 205 = assay: Growth inhibition of human COLO205 cells assessed as cell growth incubated for 48 hrs by sulforhodamine B assay; set-up: concentration or dose not given beside the values
# SR = assay: Growth inhibition of human SR cells assessed as cell growth incubated for 48 hrs by sulforhodamine B assay; set-up: concentration or dose not given beside the values
# PC-3 = assay: Growth inhibition of human PC3 cells assessed as cell growth incubated for 48 hrs by sulforhodamine B assay; set-up: concentration or dose not given beside the values
# HOP-62 = assay: Growth inhibition of human HOP62 cells assessed as cell growth incubated for 48 hrs by sulforhodamine B assay; set-up: concentration or dose not given beside the values
# Malme-3M = assay: Growth inhibition of human MALME-3M cells assessed as cell growth incubated for 48 hrs by sulforhodamine B assay; set-up: scale not given: the % may be the effect or the level left
# Hs-578T = assay: Growth inhibition of human Hs 578T cells assessed as cell growth incubated for 48 hrs by sulforhodamine B assay; set-up: concentration or dose not given beside the values
# SF-295 = assay: Growth inhibition of human SF295 cells assessed as cell growth incubated for 48 hrs by sulforhodamine B assay; set-up: concentration or dose not given beside the values
# NCI-H226 = assay: Growth inhibition of human NCI-H226 cells assessed as cell growth incubated for 48 hrs by sulforhodamine B assay; set-up: concentration or dose not given beside the values
# ACHN = assay: Growth inhibition of human ACHN cells assessed as cell growth incubated for 48 hrs by sulforhodamine B assay; set-up: scale not given: the % may be the effect or the level left
# SF-268 = assay: Growth inhibition of human SF268 cells assessed as cell growth incubated for 48 hrs by sulforhodamine B assay; set-up: concentration or dose not given beside the values
# OVCAR-5 = assay: Growth inhibition of human OVCAR5 cells assessed as cell growth incubated for 48 hrs by sulforhodamine B assay; set-up: scale not given: the % may be the effect or the level left
# SK-MEL-28 = assay: Growth inhibition of human SK-MEL-28 cells assessed as cell growth incubated for 48 hrs by sulforhodamine B assay; set-up: concentration or dose not given beside the values
# MCF7 = assay: Growth inhibition of human MCF7 cells assessed as cell growth incubated for 48 hrs by sulforhodamine B assay; set-up: concentration or dose not given beside the values
# DU-145 = assay: Growth inhibition of human DU145 cells assessed as cell growth incubated for 48 hrs by sulforhodamine B assay; set-up: concentration or dose not given beside the values
# U-251 = assay: Growth inhibition of human U251 cells assessed as cell growth incubated for 48 hrs by sulforhodamine B assay; set-up: concentration or dose not given beside the values
# CAKI-1 = assay: Growth inhibition of human Caki1 cells assessed as cell growth incubated for 48 hrs by sulforhodamine B assay; set-up: concentration or dose not given beside the values
# CCRF-CEM = assay: Growth inhibition of human CCRF-CEM cells assessed as cell growth incubated for 48 hrs by sulforhodamine B assay; set-up: concentration or dose not given beside the values
# MDA-MB-231 = assay: Growth inhibition of human MDA-MB-231 cells assessed as cell growth incubated for 48 hrs by sulforhodamine B assay; set-up: concentration or dose not given beside the values
# SK-MEL-5 = assay: Growth inhibition of human SK-MEL-5 cells assessed as cell growth incubated for 48 hrs by sulforhodamine B assay; set-up: concentration or dose not given beside the values
# NCI-H23 = assay: Growth inhibition of human NCI-H23 cells assessed as cell growth incubated for 48 hrs by sulforhodamine B assay; set-up: concentration or dose not given beside the values
# SN12C = assay: Growth inhibition of human SN12C cells assessed as cell growth incubated for 48 hrs by sulforhodamine B assay; set-up: concentration or dose not given beside the values
# M14 = assay: Growth inhibition of human M14 cells assessed as cell growth incubated for 48 hrs by sulforhodamine B assay; set-up: concentration or dose not given beside the values
# A549 = assay: Growth inhibition of human A549/ATCC cells assessed as cell growth incubated for 48 hrs by sulforhodamine B assay; set-up: concentration or dose not given beside the values
# A498 = assay: Growth inhibition of human A498 cells assessed as cell growth incubated for 48 hrs by sulforhodamine B assay; set-up: concentration or dose not given beside the values
# NCI-H460 = assay: Growth inhibition of human NCI-H460 cells assessed as cell growth incubated for 48 hrs by sulforhodamine B assay; set-up: concentration or dose not given beside the values
# SK-OV-3 = assay: Growth inhibition of human SKOV3 cells assessed as cell growth incubated for 48 hrs by sulforhodamine B assay; set-up: concentration or dose not given beside the values
# OVCAR-8 = assay: Growth inhibition of human OVCAR8 cells assessed as cell growth incubated for 48 hrs by sulforhodamine B assay; set-up: concentration or dose not given beside the values
# KM12 = assay: Growth inhibition of human KM12 cells assessed as cell growth incubated for 48 hrs by sulforhodamine B assay; set-up: concentration or dose not given beside the values
# 786-0 = assay: Growth inhibition of human 786-0 cells assessed as cell growth incubated for 48 hrs by sulforhodamine B assay; set-up: concentration or dose not given beside the values
# HOP-92 = assay: Growth inhibition of human HOP92 cells assessed as cell growth incubated for 48 hrs by sulforhodamine B assay; set-up: concentration or dose not given beside the values
# HCT-116 = assay: Growth inhibition of human HCT116 cells assessed as cell growth incubated for 48 hrs by sulforhodamine B assay; set-up: concentration or dose not given beside the values
# SNB-19 = assay: Growth inhibition of human SNB19 cells assessed as cell growth incubated for 48 hrs by sulforhodamine B assay; set-up: concentration or dose not given beside the values
# K562 = assay: Growth inhibition of human K562 cells assessed as cell growth incubated for 48 hrs by sulforhodamine B assay; set-up: concentration or dose not given beside the values
# MDA-MB-468 = assay: Growth inhibition of human MDA-MB-468 cells assessed as cell growth incubated for 48 hrs by sulforhodamine B assay; set-up: concentration or dose not given beside the values
# LOX IMVI = assay: Growth inhibition of human LOXIMVI cells assessed as cell growth incubated for 48 hrs by sulforhodamine B assay; set-up: concentration or dose not given beside the values
# MDA-MB-435 = assay: Growth inhibition of human MDA-MB-435 cells assessed as cell growth incubated for 48 hrs by sulforhodamine B assay; set-up: concentration or dose not given beside the values
# UO-31 = assay: Growth inhibition of human UO31 cells assessed as cell growth incubated for 48 hrs by sulforhodamine B assay; set-up: concentration or dose not given beside the values
# HT-29 = assay: Growth inhibition of human HT-29 cells assessed as cell growth incubated for 48 hrs by sulforhodamine B assay; set-up: concentration or dose not given beside the values
# TK-10 = assay: Growth inhibition of human TK10 cells assessed as cell growth incubated for 48 hrs by sulforhodamine B assay; set-up: concentration or dose not given beside the values
# UACC-257 = assay: Growth inhibition of human UACC257 cells assessed as cell growth incubated for 48 hrs by sulforhodamine B assay; set-up: concentration or dose not given beside the values
# NCI/ADR-RES = assay: Growth inhibition of human NCI/ADR-RES cells assessed as cell growth incubated for 48 hrs by sulforhodamine B assay; set-up: concentration or dose not given beside the values
# UACC-62 = assay: Growth inhibition of human UACC62 cells assessed as cell growth incubated for 48 hrs by sulforhodamine B assay; set-up: concentration or dose not given beside the values
# SK-MEL-2 = assay: Growth inhibition of human SK-MEL-2 cells assessed as cell growth incubated for 48 hrs by sulforhodamine B assay; set-up: concentration or dose not given beside the values
smiles,measurement,setting,value
CC(C)(O)C(O)CCc1ccc2c(=O)c3sc4c(=O)c5ccccc5c(=O)c4c3c(=O)c2c1 (stereo not drawn),Activity,HL-60(TB),-46.78%
same,Activity,BT-549,-96.67%
same,Activity,SNB-75,-95.74%
same,Activity,RPMI-8226,-39.84%
same,Activity,RXF 393,-77.25%
same,Activity,MOLT-4,-36.2%
same,Activity,HCC 2998,-90.76%
same,Activity,NCI-H322M,-97.48%
same,Activity,OVCAR-3,-68.52%
same,Activity,T47D,-51.1%
same,Activity,SW-620,-60.32%
same,Activity,SF-539,-99.46%
same,Activity,HCT-15,-61.54%
same,Activity,NCI-H522,-72.26%
same,Activity,OVCAR-4,-71.07%
same,Activity,COLO 205,-91.79%
same,Activity,SR,-25%
same,Activity,PC-3,-79.46%
same,Activity,HOP-62,-90.94%
same,Activity,Malme-3M,-93.22%
same,Activity,Hs-578T,1.09%
same,Activity,SF-295,-92.59%
same,Activity,NCI-H226,-49.62%
same,Activity,ACHN,-96.22%
same,Activity,SF-268,-57.54%
same,Activity,OVCAR-5,-85.63%
same,Activity,SK-MEL-28,-96.8%
same,Activity,MCF7,-58.78%
same,Activity,DU-145,-94.41%
same,Activity,U-251,-92.83%
same,Activity,CAKI-1,-78.75%
same,Activity,CCRF-CEM,-29.57%
same,Activity,MDA-MB-231,-15.99%
same,Activity,SK-MEL-5,-98.07%
same,Activity,NCI-H23,-50.82%
same,Activity,SN12C,-69%
same,Activity,M14,-93.82%
same,Activity,A549,-55.33%
same,Activity,A498,-87.3%
same,Activity,NCI-H460,-52.32%
same,Activity,SK-OV-3,-97.49%
same,Activity,OVCAR-8,-38.88%
same,Activity,KM12,-76.76%
same,Activity,786-0,-95.07%
same,Activity,HOP-92,-32.93%
same,Activity,HCT-116,-80.84%
same,Activity,SNB-19,-98.59%
same,Activity,K562,-59.88%
same,Activity,MDA-MB-468,-83.65%
same,Activity,LOX IMVI,-82.6%
same,Activity,MDA-MB-435,-93.07%
same,Activity,UO-31,-96.98%
same,Activity,HT-29,-46.19%
same,Activity,TK-10,-89.49%
same,Activity,UACC-257,-92.08%
same,Activity,NCI/ADR-RES,-15.35%
same,Activity,UACC-62,-88.01%
same,Activity,SK-MEL-2,-72.32%
